Data reported in PMC11061149, “Protein mimetic 2D FAST rescues alpha synuclein aggregation mediated early and post disease Parkinson’s phenotypes” (Nature Communications, 2024).
Several values for one entry are separate records, joined by “and”; a condition that tells them apart may be missing. Identical values can stand only once.

Legend:
UA196 worms = experiment: ROS level in post-disease onset PD model of UA196 worms; format: in vivo, C. elegans
Description: The UA196 worms were bleached, and the eggs were incubated on PLATE 1. On day two, the UA196 worms were transferred (using M9 buffer) on PLATE 2 (without ligand). On day five, 100 UA196 worms were used to determine the ROS level (as described earlier) prior to the treatment with ligands on day five. In tandem, ~200 worms were transferred to PLATE 3 (with ligand) using M9 buffer (10-20 µL) and the plate was incubated at 20 °C in the incubator. On day 8, 100 UA196 worms from PLATE 2 (without ligand) and PLATE 3 (with ligand) were used to determine the ROS level (as described earlier). For each condition, three biological replicates were performed, and 3 technical replicates were used for each biological replicate. […] (n = 3 independent experiments and each n consisted of 3 technical replicates).

αS = target: T1, αS (Homo sapiens, UniProt P37840); experiment: Isothermal titration calorimetry (ITC); format: binding; conditions: ligand titrated into 15 μM αS in PBS; read-out: dissociation constant (Kd)
T1 construct: made in house; host or cells: E. coli BL21(DE3)
Description: The ITC experiments were performed in a NANO-ITC (TA Instruments, New Castle, DE). For each ITC experiment, a solution of 250 μM NS132 in PBS was serially titrated (2 μL injections […] via rotary syringe, stirring speed at 300 rpm) into a sample cell containing 350 μL of 15 μM αS in the same buffer conditions at 300 sec intervals. The heat associated with each injection was calculated by integrating each heat burst curve using NanoAnalyze software (TA Instruments, New Castle, DE). The associated heat for each injection of NS132 in αS solution was corrected by subtracting heat resulted from the titration of NS132 into buffer (in 1 × PBS) under identical conditions. The corrected heat values were plotted as a function of the molar ratio of NS132 to αS and the plot was fitted using a one binding site independent model available in NanoAnalyze software. The fitting was carried out using 10,000 iterations in the software without any data constraints during the fitting. The ITC titrations were conducted in triplicate and the reported thermodynamic parameters were calculated as an average of three independent experiments.

[1] = target: T2, αS monomer-αS fibers interaction (Homo sapiens, UniProt P37840); experiment: HSQC NMR of 15N-αS monomer with αS fibers with or without NS132; format: binding; conditions: 70 μM 15N-αS + αS fibers, equimolar NS132, 24 h
T2 construct: purchased rpeptide, Bogart, GA
Description: We also employed 2D NMR HSQC for atomic-level insights into fibers-catalyzed aggregation of αS and its inhibition by NS132. […] We have also shown that NS132 specifically interacts with the N-terminal residues of αS. […] We incubated preformed fibers of αS with 70 μM ^15N-^1H-uniformly labeled αS monomer and used HSQC NMR to characterize the kinetics of fibers-catalyzed aggregation of αS on a molecular level. […] Also, αS fibers interact specifically with four αS sequences on the N-terminus, including residues 3-23, 40-45, 49-59, and 75-84 (Fig. 4b,c). There was an induction of a secondary structure in the αS monomer, indicated by the spreading of the amide peaks toward the ^1H resonances (Fig. 4c, green). […] Even after 40 h, there were fewer and smaller changes in the volume intensity of the amide peaks of ^15N-^1H-uniformly labeled αS monomer in the presence of NS132 (Fig. 4f).
For the HSQC experiments titrating NS132 into ^15N αS, the same experimental conditions were used as above. Incrementally, NS132 was added to a single ^15N αS solution, mixed, kept at r.t. for 10 min and HSQC was recorded under the conditions stated above. For HSQC experiments containing pre-formed fibrils (PFF) of αS, 5.4 eq. of PFF solution (500 μM) was added to monomeric ^15N αS solution, and the spectra was recorded as previously stated.

NL5901 worms = experiment: Motility assay of NL5901 worms (WMicroTracker ARENA); format: in vivo, C. elegans; conditions: for Motility of NL5901 worms + NS132: individual trials
Description: Briefly, all worm strains were bleached at the same time and the eggs were incubated on PLATE 1. On day two, the worms were divided into two batches. […] The liquid media for PLATE 4 A/B was prepared with 67.28% (v/v) of M9 buffer, 75 μM FUDR, 0.1% of 1 M magnesium sulfate (v/v), 0.1% of 1 M calcium chloride (v/v), 2.5% of 1 M potassium phosphate solution (pH 6, v/v), and 30% (v/v) of OP50 (0.5 OD600nm). […] To test the effect of each ligand on disease worm strains (NL5901 or UA196), there were four conditions were used in PLATE 4 A/B: […] The assay was started on day four using the WMicroTracker ARENA plate reader (Phylumtech, Santa Fe, Argentina) at 20 °C for 1 h per day over a 14-day period at intervals of 24 h. The WMicroTracker ARENA plate reader uses a large array of infrared light microbeams in each well of the plate to detect the interference caused by the movement of the worms. The output by the ARENA plate reader is an average of the overall movement of all worms present in each well, which is denoted as the motility of the worms in each well. […] After collecting the data each day, the PLATE 4 A/B was again placed on the shaker (100 rpm) at 20 °C in the incubator. The PLATE 4 A/B was on the on the shaker (100 rpm) at 20 °C in the incubator the whole duration of the experiment except only when the reading was collected on the WMicroTracker ARENA plate reader for 1 h.

Kd (αS): 1.81 ± 0.33 µM
change in the volume of the amide peaks of 15N-αS monomer with αS fibers, in words [1]: no significant change
SMILES: Cc1ccc(NC(=O)c2ccc(NC(=O)c3ccc([N+](=O)[O-])c(NCCc4c[nH]c5ccccc45)n3)c(NCC3CCCCC3)n2)c(OCC(=O)O)n1 [NS132]
ROS level in UA196 worms, post-disease model, in words (UA196 worms; 50 μM ligand on day five, ROS on day eight): very effective in decreasing the ROS level
ROS level (dye fluorescence), Average (UA196 worms; UA196+NS132, Day 5 (same value as UA196 control)): 1262.3
ROS level (dye fluorescence), Average (UA196 worms; UA196+NS132, Day 8): 733.721
motility of NL5901 worms, in words (NL5901 worms; 50 μM ligand on day two and day four): increase in the motility
Motility of NL5901 worms + NS132 (NL5901 worms; Day 4): 255 and 287 and 207 and 297
Motility of NL5901 worms + NS132 (NL5901 worms; Day 5): 181 and 139 and 108 and 189
Motility of NL5901 worms + NS132 (NL5901 worms; Day 6): 201 and 130 and 176 and 121
Motility of NL5901 worms + NS132 (NL5901 worms; Day 7): 101 and 172 and 160 and 83
Motility of NL5901 worms + NS132 (NL5901 worms; Day 8): 129 and 117 and 94 and 99
Motility of NL5901 worms + NS132 (NL5901 worms; Day 9): 107 and 89 and 145 and 65
Motility of NL5901 worms + NS132 (NL5901 worms; Day 10): 127 and 107 and 105 and 52
Motility of NL5901 worms + NS132 (NL5901 worms; Day 11): 74 and 83 and 88 and 72
Motility of NL5901 worms + NS132 (NL5901 worms; Day 12): 57 and 70 and 69 and 56
Motility of NL5901 worms + NS132 (NL5901 worms; Day 13): 38 and 34 and 42 and 33
Motility of NL5901 worms + NS132 (NL5901 worms; Day 14): 27 and 43 and 19 and 20
